Test results: patent publication US20230210831A1, “CHRONIC KIDNEY DISEASE TREATMENT OR PREVENTION METHOD” (Japan Tobacco Inc., priority 2019, published 2023)

Assays:
Type in all cases: cell-based
[1] = tested on: Salmonella typhimurium TA98; experiment: Ames test (reverse mutation test), TA98
Method: (§1) The solvent used herein was dimethyl sulfoxide (DMSO, 100 µL/plate).
(§2) The mixtures were preincubated at 37° C. for 20 minutes while shaking. […] Two plates per treatment were used.

[2] = tested on: Salmonella typhimurium TA1537; experiment: Ames test (reverse mutation test), TA1537
Method: as §1, §2

[3] = tested on: Salmonella typhimurium TA100; experiment: Ames test (reverse mutation test), TA100
Method: as §1, §2

[4] = tested on: Salmonella typhimurium TA1535; experiment: Ames test (reverse mutation test), TA1535
Method: as §1, §2

Escherichia coli WP2uvrA = experiment: Ames test (reverse mutation test), WP2uvrA
Method: as §1, §2

Nc1cc(-c2cccc(OC(F)(F)F)c2)n(-c2cccc(F)c2)n1 [Metabolite G]
Number of revertant colonies TA98 ([1]; S9 Mix +, dose 2.3 µg/plate): 35
Number of revertant colonies TA98 ([1]; S9 Mix +, dose 6.9 µg/plate): 63
Number of revertant colonies TA98 ([1]; S9 Mix +, dose 21 µg/plate): 76
Number of revertant colonies TA98 ([1]; S9 Mix +, dose 62 µg/plate): 75
Number of revertant colonies TA98 ([1]; S9 Mix +, dose 185 µg/plate): 45
Number of revertant colonies TA98 ([1]; S9 Mix +, dose 556 µg/plate): 12
Number of revertant colonies TA98 ([1]; S9 Mix +, dose 1667 µg/plate): 11
Number of revertant colonies TA98 ([1]; S9 Mix +, dose 5000 µg/plate): 0
Number of revertant colonies TA98 ([1]; S9 Mix -, dose 2.3 µg/plate): 31
Number of revertant colonies TA98 ([1]; S9 Mix -, dose 6.9 µg/plate): 30
Number of revertant colonies TA98 ([1]; S9 Mix -, dose 21 µg/plate): 31
Number of revertant colonies TA98 ([1]; S9 Mix -, dose 62 µg/plate): 30
Number of revertant colonies TA98 ([1]; S9 Mix -, dose 185 µg/plate): 13
Number of revertant colonies TA98 ([1]; S9 Mix -, dose 556 µg/plate): 15
Number of revertant colonies TA98 ([1]; S9 Mix -, dose 1667 µg/plate): 8
Number of revertant colonies TA98 ([1]; S9 Mix -, dose 5000 µg/plate): 0
Number of revertant colonies TA1537 ([2]; S9 Mix +, dose 2.3 µg/plate): 13
Number of revertant colonies TA1537 ([2]; S9 Mix +, dose 6.9 µg/plate): 13
Number of revertant colonies TA1537 ([2]; S9 Mix +, dose 21 µg/plate): 16
Number of revertant colonies TA1537 ([2]; S9 Mix +, dose 62 µg/plate): 15
Number of revertant colonies TA1537 ([2]; S9 Mix +, dose 185 µg/plate): 13
Number of revertant colonies TA1537 ([2]; S9 Mix +, dose 556 µg/plate): 0
Number of revertant colonies TA1537 ([2]; S9 Mix +, dose 1667 µg/plate): 0
Number of revertant colonies TA1537 ([2]; S9 Mix +, dose 5000 µg/plate): 0
Number of revertant colonies TA1537 ([2]; S9 Mix -, dose 2.3 µg/plate): 15
Number of revertant colonies TA1537 ([2]; S9 Mix -, dose 6.9 µg/plate): 15
Number of revertant colonies TA1537 ([2]; S9 Mix -, dose 21 µg/plate): 17
Number of revertant colonies TA1537 ([2]; S9 Mix -, dose 62 µg/plate): 7
Number of revertant colonies TA1537 ([2]; S9 Mix -, dose 185 µg/plate): 0
Number of revertant colonies TA1537 ([2]; S9 Mix -, dose 556 µg/plate): 0
Number of revertant colonies TA1537 ([2]; S9 Mix -, dose 1667 µg/plate): 0
Number of revertant colonies TA1537 ([2]; S9 Mix -, dose 5000 µg/plate): 0
Number of revertant colonies TA100 ([3]; S9 Mix +, dose 2.3 µg/plate): 153
Number of revertant colonies TA100 ([3]; S9 Mix +, dose 6.9 µg/plate): 248
Number of revertant colonies TA100 ([3]; S9 Mix +, dose 21 µg/plate): 506
Number of revertant colonies TA100 ([3]; S9 Mix +, dose 62 µg/plate): 630
Number of revertant colonies TA100 ([3]; S9 Mix +, dose 185 µg/plate): 380
Number of revertant colonies TA100 ([3]; S9 Mix +, dose 556 µg/plate): 82
Number of revertant colonies TA100 ([3]; S9 Mix +, dose 1667 µg/plate): 94
Number of revertant colonies TA100 ([3]; S9 Mix +, dose 5000 µg/plate): 226
Number of revertant colonies TA100 ([3]; S9 Mix -, dose 2.3 µg/plate): 91
Number of revertant colonies TA100 ([3]; S9 Mix -, dose 6.9 µg/plate): 101
Number of revertant colonies TA100 ([3]; S9 Mix -, dose 21 µg/plate): 93
Number of revertant colonies TA100 ([3]; S9 Mix -, dose 62 µg/plate): 90
Number of revertant colonies TA100 ([3]; S9 Mix -, dose 185 µg/plate): 80
Number of revertant colonies TA100 ([3]; S9 Mix -, dose 556 µg/plate): 59
Number of revertant colonies TA100 ([3]; S9 Mix -, dose 1667 µg/plate): 61
Number of revertant colonies TA100 ([3]; S9 Mix -, dose 5000 µg/plate): 47
potential to induce reverse mutations ([3]; TA100 with S9 mix): showed potential to induce reverse mutations
Number of revertant colonies TA1535 ([4]; S9 Mix +, dose 556 µg/plate): 5
Number of revertant colonies TA1535 ([4]; S9 Mix +, dose 1667 µg/plate): 4
Number of revertant colonies TA1535 ([4]; S9 Mix -, dose 185 µg/plate): 9
Number of revertant colonies TA1535 ([4]; S9 Mix -, dose 556 µg/plate): 0
Number of revertant colonies TA1535 ([4]; S9 Mix -, dose 1667 µg/plate): 0
potential to induce reverse mutations ([4]; TA1535 without S9 mix): showed potential to induce reverse mutations
Number of revertant colonies WP2uvrA (Escherichia coli WP2uvrA; S9 Mix +, dose 2.3 µg/plate): 34
Number of revertant colonies WP2uvrA (Escherichia coli WP2uvrA; S9 Mix +, dose 6.9 µg/plate): 39
Number of revertant colonies WP2uvrA (Escherichia coli WP2uvrA; S9 Mix +, dose 21 µg/plate): 22
Number of revertant colonies WP2uvrA (Escherichia coli WP2uvrA; S9 Mix +, dose 62 µg/plate): 24
Number of revertant colonies WP2uvrA (Escherichia coli WP2uvrA; S9 Mix +, dose 185 µg/plate): 16
Number of revertant colonies WP2uvrA (Escherichia coli WP2uvrA; S9 Mix +, dose 556 µg/plate): 14
Number of revertant colonies WP2uvrA (Escherichia coli WP2uvrA; S9 Mix +, dose 1667 µg/plate): 9
Number of revertant colonies WP2uvrA (Escherichia coli WP2uvrA; S9 Mix +, dose 5000 µg/plate): 14
Number of revertant colonies WP2uvrA (Escherichia coli WP2uvrA; S9 Mix -, dose 2.3 µg/plate): 26
Number of revertant colonies WP2uvrA (Escherichia coli WP2uvrA; S9 Mix -, dose 6.9 µg/plate): 23
Number of revertant colonies WP2uvrA (Escherichia coli WP2uvrA; S9 Mix -, dose 21 µg/plate): 16
Number of revertant colonies WP2uvrA (Escherichia coli WP2uvrA; S9 Mix -, dose 62 µg/plate): 14
Number of revertant colonies WP2uvrA (Escherichia coli WP2uvrA; S9 Mix -, dose 185 µg/plate): 15
Number of revertant colonies WP2uvrA (Escherichia coli WP2uvrA; S9 Mix -, dose 556 µg/plate): 10
Number of revertant colonies WP2uvrA (Escherichia coli WP2uvrA; S9 Mix -, dose 1667 µg/plate): 17
Number of revertant colonies WP2uvrA (Escherichia coli WP2uvrA; S9 Mix -, dose 5000 µg/plate): 6
